# Assay results reported in paper PMC4967898, “Peptides interfering with protein-protein interactions in the ethylene signaling pathway delay tomato fruit ripening” (Scientific Reports, 2016).
# Entries after “also recorded” stand apart in the source; their conditions may differ.
# Key:
# [1] = target: T1, tomato EIN2-ETR1 complex (Solanum lycopersicum, UniProt Q41342); assay: FRET assay of LeEIN2-LeETR1 complex formation; assay type: biochemical
# T1 construct: made in house; host or cells: E. coli BL21(DE3) with pRARE (LeEIN2 fragment); E. coli (LeETR1)
# T1 sequence (Q41342 1-754): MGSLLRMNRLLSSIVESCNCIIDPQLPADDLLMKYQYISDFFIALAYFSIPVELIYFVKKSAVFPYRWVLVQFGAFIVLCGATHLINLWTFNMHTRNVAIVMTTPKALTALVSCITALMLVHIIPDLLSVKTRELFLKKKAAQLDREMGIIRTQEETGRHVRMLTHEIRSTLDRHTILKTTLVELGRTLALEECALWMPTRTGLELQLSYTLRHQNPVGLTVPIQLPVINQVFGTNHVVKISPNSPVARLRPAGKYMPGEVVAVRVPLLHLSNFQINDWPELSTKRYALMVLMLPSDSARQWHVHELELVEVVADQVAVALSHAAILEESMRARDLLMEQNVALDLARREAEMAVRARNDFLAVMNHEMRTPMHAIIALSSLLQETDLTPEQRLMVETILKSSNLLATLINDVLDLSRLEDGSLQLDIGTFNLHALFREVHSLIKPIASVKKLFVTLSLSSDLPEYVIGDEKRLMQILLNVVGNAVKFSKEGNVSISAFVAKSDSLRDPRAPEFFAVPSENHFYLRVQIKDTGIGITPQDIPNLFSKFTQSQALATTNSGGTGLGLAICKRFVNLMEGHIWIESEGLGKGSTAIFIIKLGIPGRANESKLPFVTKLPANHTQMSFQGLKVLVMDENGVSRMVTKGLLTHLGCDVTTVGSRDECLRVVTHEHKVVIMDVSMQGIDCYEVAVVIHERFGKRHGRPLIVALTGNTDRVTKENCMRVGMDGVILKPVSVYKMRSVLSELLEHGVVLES
# Source text: For this purpose, we made use of a fluorescence resonance energy transfer (FRET)-based in vitro assay, originally established for the respective Arabidopsis signaling proteins. Recombinant ethylene proteins LeETR1 and LeEIN2^462–1316 were labeled with fluorescent Alexa dyes[36] as described in the Methods section. LeETR1 was labeled with Alexa Fluor 488, while LeEIN2^462–1316 was labeled with Alexa Fluor 568. As the emission spectrum of the donor fluorophore partially overlaps with the excitation spectrum of the acceptor fluorophore, the dyes form a FRET pair and energy transfer from the donor to the acceptor fluorophore is possible when both probes get in close proximity. […] Formation of the complex is monitored by FRET from the donor molecule Alexa Fluor 488 to the acceptor molecule Alexa Fluor 568. Processes or molecules that prevent complex formation result in a reduced FRET from the donor to the acceptor, which is detected as reduced acceptor fluorescence at the emission maximum.
# Quantitative analysis of inhibitory peptides on ETR1-EIN2 complex by FRET
# For the FRET assay, recombinant LeETR1 was labeled with Alexa Fluor 488 succinimidyl-ester and LeEIN2^462–1316 was labeled with Alexa Fluor 568 succinimidyl-ester (both Life Technologies) in a buffer containing 50 mM potassium phosphate pH 8.0, 300 mM NaCl and 5% (v/v) glycerol following manufacturer’s protocol (MolecularProbes Protein Labeling Kit). Labeled proteins were transferred in FRET buffer containing 50 mM Tris-HCl pH 8.0, 300 mM NaCl, 0.05% (v/v) Tween 20, 5% (v/v) glycerol and mixed at a final concentration of 3.0 μM each. […] The FRET-based binding assay was carried out in 384-well microplates using an Infinite M200 Pro microplate reader (Tecan) at 455 nm excitation wavelength. Emission spectra were detected between 565 nm to 645 nm. FRET efficiencies were calculated from the maximal emission in the absence and in the presence of the supplied peptides and the half maximal inhibitor concentration IC50 was calculated as previously described.
# [2] = NOP-1 stability by LC/MS; assay type: physicochemical; settings: NOP-1 500 µg in 100 µl PBS pH 6.7, 0, 5, 10 and 15 days, room temperature; Supelcosil C18, 215 nm; identity by mass spectrometry
# Description: Figure S4: Analysis of NOP-1 stability by liquid chromatography (LC).
# Lyophilized NOP-1 (500 µg) was dissolved in 100 µl PBS pH 6.7, incubated for 0 days, 5 days, 10 days and 15 days at room temperatures and then applied to a Supelcosil C18 column (4.6x150 mm). The column was washed with 15 ml H2O with 0.1% TFA (buffer A).
# Elution was performed with a linear gradient to 100% buffer B (100% acetonitrile with 0.1% TFA) over 30 min at a flow rate of 1 ml min-1. Detection was set to 215 nm. Identity of the peptide was confirmed by mass spectrometry. […]
# [3] = test system: green, immature tomato fruits; set-up: method as in PMID 25843012; settings: cited from earlier work
smiles,measurement,setting,value
"CC(C)C[C@H](NC(=O)[C@H](CCCNC(=N)N)NC(=O)[C@H](CCCNC(=N)N)NC(=O)[C@H](CCCCN)NC(=O)[C@H](Cc1ccc(O)cc1)NC(=O)[C@H](CCCNC(=N)N)NC(=O)[C@H](CCCCN)NC(=O)[C@@H](N)CC(C)C)C(N)=O [NOP-1, LKRYKRRL-NH2]",FRET efficiency (of the value observed in the absence of NOP-1),"[1]; 100 μM NOP-1, LeETR1-Alexa Fluor 488 and LeEIN2^462–1316-Alexa Fluor 568, 3 μM each, 50 mM Tris-HCl pH 8.0, 300 mM NaCl, 0.05% Tween 20, 5% glycerol, excitation 455 nm, emission 565–645 nm",about 9%
same,effect on tomato EIN2-ETR1 complex formation,"[1]; FRET assay, 100 μM peptide where stated, LeETR1-Alexa Fluor 488 and LeEIN2-Alexa Fluor 568, 3 μM each",pronounced inhibition in FRET efficiency; also recorded: leads to a reduced FRET from LeETR1-Alexa Fluor 488 to LeEIN2-Alexa Fluor 568; also recorded: able to efficiently disrupt EIN2-ETR1 complex formation in tomato; also recorded: specific disruption of the tomato EIN2-ETR1 complex
same,stability of the peptide,[2],stable for several days at room temperature under normal conditions
same,"effect on fruit ripening in tomato, previous work",[3],efficiently reduced fruit ripening in tomato
